In patent US6710078B2, “5-Substituted-3(2H)-furanones useful for inhibition of farnesyl-protein transferase” (Wyeth Holdings Corporation, priority 2001, dated 2004):
Values belong to the molecule of their own block, whether it stands above or below them.

Tests used:
[1] = molecular target: T1, FPTase (Homo sapiens, UniProt P49354+P49356); experiment: in vitro FTase Inhibition Assay, K-Ras as substrate for farnesylation; assay type: biochemical; conditions: K-Ras used as substrate for farnesylation
Description: (§1) Enzyme test procedure: FPTase inhibition in vitro assay was performed according to James, G. L., Brown, M. S., and Goldstein, J. L., Methods in Enzymology, 1995, 255, 38-46; and Garcia, M. A., et al., J. Biol. Chem., 1993, 268,18415-18420.
(§2) Materials—Purified FPTase (Moomaw, J. F. and Casey, P. J., J. Biol. Chem., 1992, 267,17438-17443), purified His6-Ras, inhibitor compounds at 10 mg/ml or 10 mM in 100% DMSO, ^3H-FPP (50,000 dpm/pmol) Amersham, TCA/SDS (6%/2%), TCA (6%), Glass fiber filters ([…]), vacuum manifold or 96 well filtration plates.
(§3) Methods—1. Dilute FPTase inhibitors from stock solutions to 2.5× in 2.5% DMSO, 10 mM DTT, 0.5% octyl-B-glucoside. 2. Solution #1 is added to FPTase reaction in a volume of […]. 3. Standard reaction mix, […], contains 50 mM Tris (7.5),[…], 3 mM MgCl2, 20 mM KCl, 5 mM DTT, 0.2% octyl-B-glucoside, 1% DMSO, […], 10 ng FPTase, and various concentrations of FPTase inhibitors. 4. Incubate for 30-90 min at 25° C. 5. Stop reactions with TCA/SDS (6%/2%), hold at 4° C. for 45-60 min. 6. Filter by manifold or 96 well plate, wash filter 3-5× with TCA (6%). 7. Add scintillant to filters, measure ^3H-FPP incorporation into Ras protein.
(§4) Analysis of Results—Percent inhibition by test compounds is determined by the following:
(§5) (cpm from precipitated Ras with test compounds)−(background cpm)×100=% inhibition.
(§6) (cpm from precipitated Ras without test compounds)−(background cpm)

[2] = molecular target: T1, FPTase; experiment: in vitro FTase Inhibition Assay, H-Ras as substrate for farnesylation; assay type: biochemical; conditions: H-Ras used as substrate for farnesylation
Description: as §1, §2, §3, §4, §5, §6

IC50 [2]: 190 nM
SMILES: CC1(c2ccccc2)OC(CC(SC[C@H](O)[C@H](O)CS)c2ccsc2)=CC1=O (relative stereo) [Example 2, 5-(2-[[(2R*,3S*)-2,3-Dihydroxy-4-mercaptobutyl]thio]-2-thien-3-ylethyl)-2methyl-2-phenylfuran-3(2H)-one]

IC50 [2]: 180 nM
SMILES: CC1(c2ccccc2)OC(CC(SC[C@H](O)[C@@H](O)CS)c2ccsc2)=CC1=O (stereo partly drawn) [Example 3, 5-[2-{[(2R,3R)-2,3-Dihydroxy-4-mercaptobutyl]thio}-2-(3-thienyl)ethyl]-2-methyl-2-phenylfuran-3(2H)-one]

IC50 [1]: > 10000 nM
IC50 [2]: 5500 nM
SMILES: CC1(c2ccccc2)OC(CC(SCCCCO)c2ccsc2)=CC1=O (stereo not shown) [Example 10, 5-[2-[(4-Hydroxybutyl)thio]-2-(3-thienyl)ethyl]-2-methyl-2-phenylfuran-3(2H)-one]

IC50 [1]: 150 nM
IC50 [2]: 60 nM
SMILES: CC1(c2ccccc2)OC(CC(SCCCS)c2ccsc2)=CC1=O (stereo not shown) [Example 11, 5-[2-[(3-Mercaptopropyl)thio]-2-(3-thienyl)ethyl]-2-methyl-2-phenylfuran-3(2H)-one]

IC50 [1]: 1000 nM
IC50 [2]: 180 nM
SMILES: CC1(c2ccccc2)OC(CC(SCCS)c2ccsc2)=CC1=O (stereo not shown) [Example 13, 5-[2-[(2-Mercaptoethyl)thio]-2-(3-thienyl)ethyl]-2-methyl-2-phenylfuran-3(2H)-one]

IC50 [1]: > 10000 nM
IC50 [2]: > 10000 nM
SMILES: CC1(c2ccccc2)OC(CC(SCCc2cnccn2)c2ccsc2)=CC1=O (stereo not shown) [Example 17, 2-Methyl-2-phenyl-5-[2-[(2-pyrazin-2-ylethyl)thio]-2-(3-thienyl)ethyl]furan-3(2H)-one]

IC50 [2]: 550 nM
SMILES: CC1(c2ccccc2)OC(CC(SCCO)c2ccsc2)=CC1=O (stereo not shown) [Example 18]

The remaining lines, values behind:

SMILES: CC1(c2ccccc2)OC(CC(SC[C@@H](O)[C@H](O)CS)c2ccsc2)=CC1=O (relative stereo) [Example 1, 5-(2-{[(2S*,3S*)-2,3-Dihydroxy-4-mercaptobutyl]thio}-2-thien-3-ylethyl)-2-methyl-2-phenylfuran-3(2H)-one]
IC50 [1]: 100 nM
IC50 [2]: 60 nM

SMILES: CC1(c2ccccc2)OC(CC(SC[C@@H](O)[C@H](O)CS)c2ccccc2[N+](=O)[O-])=CC1=O (relative stereo) [Example 7, 5-[2-{[(2S*,3S*)-2,3-Dihydroxy-4-mercaptobutyl]thio}-2-(2-nitrophenyl)ethyl]-2-methyl-2-phenylfuran-3(2H)-one]
IC50 [1]: 90 nM
IC50 [2]: 320 nM

SMILES: CC1(c2ccc(F)cc2)OC(CC(SC[C@H](O)[C@@H](O)CS)c2ccsc2)=CC1=O (stereo partly drawn) [Example 6, 5-(2-{[(2R,3R)-2,3-Dihydroxy-4-mercaptobutyl]thio}-2-thien-3-ylethyl)-2-(4-fluorophenyl)-2-methylfuran-3(2H)-one]
IC50 [1]: 140 nM
IC50 [2]: 120 nM

SMILES: CC(C1=CC(=O)C(C)(c2ccccc2)O1)C(SCC(O)C(O)CS)c1ccsc1 (stereo not shown) [Example 8, 5-(2-{[(2S*3S*)-2,3-Dihydroxy-4-mercaptobutyl]thio}-1-methyl-2-thien-3-ylethyl)-2-methyl-2-phenylfuran-3(2H)-one]
IC50 [1]: 700 nM
IC50 [2]: 500 nM

SMILES: CC1(c2ccccc2)OC(CC(SCCCCS)c2ccsc2)=CC1=O (stereo not shown) [Example 9, 5-[2-[(4-Mercaptobutyl)thio]-2-(3-thienyl)ethyl]-2-methyl-2-phenylfuran-3(2H)-one]
IC50 [1]: 3700 nM
IC50 [2]: 1500 nM

SMILES: CC1(c2ccccc2)OC(CC(SCCCCCS)c2ccsc2)=CC1=O (stereo not shown) [Example 12, 5-[2-[(5-Mercaptopentyl)thio]-2-(3-thienyl)ethyl]-2-methyl-2-phenylfuran-3(2H)-one]
IC50 [2]: 8000 nM

SMILES: CC1(c2ccccc2)OC(CC(SCC(S)CO)c2ccsc2)=CC1=O (stereo not shown) [Example 14, 5-[2-[(3-Hydroxy-2-mercaptopropyl)thio]-2-(3-thienyl)ethyl]-2-methyl-2-phenylfuran-3(2H)-one]
IC50 [1]: 4500 nM
IC50 [2]: 7200 nM

SMILES: CC1(c2ccccc2)OC(CC(SCCCO)c2ccsc2)=CC1=O (stereo not shown) [Example 15, 5-[2-[(3-Hydroxypropyl)thio]-2-(3-thienyl)ethyl]-2-methyl-2-phenylfuran-3(2H)-one]
IC50 [2]: 8300 nM

SMILES: CC1(c2ccccc2)OC(CC(SCC(O)CO)c2ccsc2)=CC1=O (stereo not shown) [Example 16, 5-[2-[(2,3-Dihydroxypropyl)thio]-2-(3-thienyl)ethyl]-2-methyl-2-phenylfuran-3(2H)-one]
IC50 [2]: 5000 nM

SMILES: CC1(c2ccc(F)cc2)OC(CC(SCCO)c2ccsc2)=CC1=O (stereo not shown) [Example 19, 2-(4-Fluorophenyl)-5-[2-[(2-hydroxyethyl)thio]-2-(3-thienyl)ethyl]-2-methylfuran-3(2H)-one]
IC50 [2]: > 10000 nM

SMILES: CC1(c2ccccc2)OC(CC(SC[C@H](N)C(=O)O)c2ccsc2)=CC1=O (stereo partly drawn) [Example 20, (2R)-2-Amino-3-{[2-(5-methyl-4-oxo-5-phenyl-4,5-dihydrofuran-2-yl)-1-thien-3-ylethyl]thio}propanoic acid]
IC50 [2]: > 10000 nM
